Data on twelve molecules can be found in paper PMC9849758, “Chemically diverse activity-based probes with unexpected inhibitory mechanisms targeting trypsin-like serine proteases” (Frontiers in Chemistry, 2023).

“Also recorded” adds a separate entry of the source. Where a name gives a salt, the structure may show the parent alone.

The target in test [1] is T1, Neutrophil Elastase (recombinant neutrophil elastase) (Homo sapiens, UniProt P08246).
T1 construct: purchased Enzo LifeSciences
T1 sequence (P08246 30-267): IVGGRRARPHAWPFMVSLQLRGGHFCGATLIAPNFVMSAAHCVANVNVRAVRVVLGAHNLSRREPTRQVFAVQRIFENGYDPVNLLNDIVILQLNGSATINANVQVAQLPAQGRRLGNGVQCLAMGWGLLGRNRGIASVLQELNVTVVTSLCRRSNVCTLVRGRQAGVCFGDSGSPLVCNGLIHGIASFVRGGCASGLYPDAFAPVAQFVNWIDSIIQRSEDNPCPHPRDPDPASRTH
Nature of the test: IC50 determination, spectrophotometric protease assay. In kind it is biochemical. Summed up:
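Compounds were first tested at 10, 1 and .1 μM, and only those reducing activity by at least 50% at 10 μM went on to full IC50 curves. Cleavage of substrates, dosed at their Km, was monitored 30 min at 37°C.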

The target of another test is β-tryptase (Homo sapiens, UniProt P20231). Nature of the test: Labeling and detection of recombinant proteases (SDS-PAGE blot, NeutrAvidin-HRP). In kind it is binding. The conditions noted are these: 1 µM ABP, 100 ng protease, 30 min 37°C, denaturing SDS-PAGE blot. Here is the method: Recombinant proteases (100 ng) were labeled with 1 µM ABP in reaction buffer in a final volume of 40 µL for 30 min at 37°C. After the addition of 4X Laemmli buffer (Bio-Rad, GmbH) supplemented with Bond-Breaker Tris (2-CarboxyEthyl)Phosphine (TCEP) Solution (Thermo Scientific, United States), the samples were heated at 95°C for 5 min and loaded into 4%–20% Mini-Protean TGX precast gels (Bio-Rad, GmbH). After electrophoresis, the proteins were blotted onto nitrocellulose membranes using the Trans-Blot Transfer Turbo System (Bio-Rad). Membranes were incubated with NeutrAvidin-HRP (1:50,000), and bands were visualized with ECL Select Western Blot Detection Reagent (GE Healthcare Life Sciences) by chemiluminescence (Chemidoc XRS; Bio-Rad). The molecular weight of each band was determined with the Image Lab Software v5 (Bio-Rad).
To further characterize the newly synthesized compounds and their potential to be used as ABPs, nine desthiobiotin probes were used for the labeling and detection of recombinant proteases. The arginine (45b–46b) and the proline-lysine (58b) desthiobiotin probes were used as reference compounds. Whereas the benzyl guanidine (50b, 52b, 54b) and phenyl guanidine probes (55b–57b) were used to determine whether the mechanism of inhibition (reversible or irreversible) is an obstacle to visualize the proteases. Samples of human recombinant proteases (trypsin-3, β-tryptase, and CatG) were incubated with the different probes before electrophoresis and detection with NeutrAvidin-HRP on a Western blot. Figure 7A illustrates the ability of the desthiobiotin probes to indicate the presence of the corresponding trypsin-like enzyme. […] This effect can be explained due to the strong interactions between the active site of the protease and the probes. The high affinity and the slow off-rates were described in Table 5 by the equilibrium constants KI*. Assuming that there is an excess of inhibitor over enzyme, the free inhibitor concentration must be very low, lower than the KI*, in order for the complex to dissociate. Therefore, the high affinity complex E*I survives during the whole process of labeling, gel electrophoresis, and visualization.

In test [2] the test system is proteases in human mast cell supernatants. The test is described as follows: Labeling of mast cell supernatants, functional proteomic profiling. The conditions noted are these: 1 µM ABP, 10 µg total protein, two donors, IgE/DNP stimulated and non-stimulated. Here is the method: Peripheral blood mononuclear cells (PBMCs) were obtained from buffy coats (Etablissement Français du Sang). CD34^+ precursors cells were isolated from PBMCs (EasySep™ Human CD34 Positive Selection Kit, STEMCELL Technologies) and grown under serum-free conditions using StemSpanTM medium (STEMCELL Technologies) supplemented with recombinant human IL-6 (50 ng/ml; Peprotech), human IL-3 (10 ng/ml; Peprotech) and 3% supernatant of CHO transfectants secreting murine SCF (a gift from Dr. P. Dubreuil, Marseille, France, 3% correspond to ∼50 ng/ml SCF) for 1 week. Cells were next grown in IMDM Glutamax I, sodium pyruvate, 2-mercaptoethanol, .5% BSA, Insulin-transferrin selenium (all from Invitrogen), penicillin (100 U/ml), streptomycin (100 μg/ml) and 3% supernatant of CHO transfectants secreting murine SCF for 8 weeks then tested phenotypically (CD117+, FcεRI+) and functionally (β-hexosaminidase release in response to FcεRI crosslinking) before use for experiments. Only primary cell lines showing more than 95% CD117+/FcεRI+ cells were used for experiments.
1 × 10^5 mast cells were distributed in 50 µl Tyrode’s Buffer and adapted to 37°C for 30 min. Mast cells were next stimulated with DNP-BSA (200 ng/ml) after sensitization with 1 μg/ml of IgE anti DNP (Sigma-Aldrich) overnight. Supernatants were harvested and stored at −80°C. (β-hexosaminidase was assayed by measuring the release of p-nitrophenol from the substrate p-nitrophenyl N-acetyl-β-D-glucosaminide).
Mast cell supernatants (10 µg of total protein) were labeled with 1 µM individual ABPs (46b, 52b, or 57b) in 50 mM Tris, 120 mM NaCl, .1 mg/ml BSA, 50 μg/ml heparin, pH 8 at 25°C (Sigma-Aldrich) in a final volume of 500 µL. […] The molecular weight of each band was determined with the Image Lab Software v5 (Bio-Rad) with Dual Color Protein Precision Plus Standard (10–250 kDa; Bio-Rad) as reference. […]

β-tryptase, sequence (P20231 31-275): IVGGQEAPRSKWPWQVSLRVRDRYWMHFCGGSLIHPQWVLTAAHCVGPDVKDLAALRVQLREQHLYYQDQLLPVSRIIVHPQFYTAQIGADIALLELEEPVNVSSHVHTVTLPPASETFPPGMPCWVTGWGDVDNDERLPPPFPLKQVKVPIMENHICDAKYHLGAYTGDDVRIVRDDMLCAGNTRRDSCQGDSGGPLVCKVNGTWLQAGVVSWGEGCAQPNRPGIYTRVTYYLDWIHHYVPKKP

Take `C#CCCCOC(=O)NC(C1CCN(C(=N)N)CC1)P(=O)(Oc1ccccc1)Oc1ccccc1` (stereo not drawn) [41b]: the IC50 – broadly, the concentration that gives 50% inhibition – in test [1] is greater than 10 µM.

Take `C[C@@H]1NC(=O)N[C@@H]1CCCCCC(=O)NCCOCCOCCOCCn1cc(CCCOC(=O)NC(CCCNC(=N)N)P(=O)(Oc2ccc(Cl)cc2)Oc2ccc(Cl)cc2)nn1` (stereo partly drawn) [46b]: the “labeling of recombinant β-tryptase” value at β-tryptase is “not good ABP candidates”. In addition, the “labeling of proteases in mast cell supernatants” value (shortened to “labeling of proteases”) in test [2] is listed as “can label proteases in a complex proteome”.

`C#CCCCOC(=O)NC(Cc1ccc(NC(=N)N)cc1)P(=O)(Oc1ccc(Cl)cc1)Oc1ccc(Cl)cc1` (stereo not drawn) [36b]: the IC50 in test [1] is greater than 10 µM.

As to `CC(=O)Nc1ccc(OP(=O)(Oc2ccc(NC(C)=O)cc2)C(Cc2ccc(NC(=N)N)cc2)NC(=O)OCCCc2cn(CCOCCOCCOCCNC(=O)CCCCC[C@H]3NC(=O)N[C@H]3C)nn2)cc1` (stereo partly drawn) [52b], the IC50 in test [1] is greater than 10 µM. The “labeling of recombinant β-tryptase” value on β-tryptase is reported as “can label”.

In the case of `C[C@@H]1NC(=O)N[C@@H]1CCCCCC(=O)NCCOCCOCCOCCn1cc(CCCOC(=O)NC(Cc2ccc(NC(=N)N)cc2)P(=O)(Oc2ccccc2)Oc2ccccc2)nn1` (stereo partly drawn) [50b, 3-(1-(18-((4R,5S)-5-methyl-2-oxoimidazolidin-4-yl)-13-oxo-3,6,9-trioxa-12-azaoctadecyl)-1H-1,2,3-triazol-4-yl)propyl (1-(diphenoxyphosphoryl)-2-(4-guanidinophenyl)ethyl)carbamate trifluoroacetate salt], the half-maximal inhibitory concentration (IC50) in test [1] was greater than 10 µM. Moreover, at β-tryptase, the “labeling of recombinant β-tryptase” value is listed as “can label”.

For the molecule `C#CCCCOC(=O)NC(c1ccc(NC(=N)N)cc1)P(=O)(Oc1ccccc1)Oc1ccccc1.O=C(O)C(F)(F)F` (stereo not drawn) [37b, Pent-4-yn-1-yl ((diphenoxyphosphoryl)(4-guanidinophenyl)methyl)carbamate trifluoroacetate salt], the IC50 in test [1] was greater than 10 µM.

`C[C@@H]1NC(=O)N[C@@H]1CCCCCC(=O)NCCOCCOCCOCCn1cc(CCCOC(=O)NC(c2ccc(NC(=N)N)cc2)P(=O)(Oc2ccc(Cl)cc2)Oc2ccc(Cl)cc2)nn1` (stereo partly drawn) [57b]: the “labeling of recombinant β-tryptase” value on β-tryptase is recorded as “slightly better resolution”. Besides, in test [2], the “labeling of proteases” value is “can label proteases in a complex proteome”.

Take `C#CCCCOC(=O)NC(CCCNC(=N)N)P(=O)(Oc1ccccc1)Oc1ccccc1` (stereo not drawn) [32b]: the IC50 in test [1] is greater than 10 µM.

Take `C[C@@H]1NC(=O)N[C@@H]1CCCCCC(=O)NCCOCCOCCOCCn1cc(CCCOC(=O)NC(Cc2ccc(NC(=N)N)cc2)P(=O)(Oc2ccc(Cl)cc2)Oc2ccc(Cl)cc2)nn1` (stereo partly drawn) [54b]: in test [1], the IC50 was greater than 10 µM. In addition, the “labeling of recombinant β-tryptase” value at β-tryptase is recorded as “can label; also recorded: slightly better resolution”. The “labeling of proteases” value in test [2] is on record as “can label proteases in a complex proteome; also recorded: best resolution”.

For the molecule `C[C@@H]1NC(=O)N[C@@H]1CCCCCC(=O)NCCOCCOCCOCCn1cc(CCCOC(=O)NC(CCCNC(=N)N)P(=O)(Oc2ccccc2)Oc2ccccc2)nn1` (stereo partly drawn) [45b], the “labeling of recombinant β-tryptase” value on β-tryptase is “not good ABP candidates”.

As for `C#CCCCOC(=O)NC(Cc1ccc(NC(=N)N)cc1)P(=O)(Oc1ccccc1)Oc1ccccc1` (stereo not drawn) [34b], the half-inhibitory concentration (IC50) in test [1] is greater than 10 µM.

In the case of `C#CCCCOC(=O)NC(Cc1ccc(NC(=N)N)cc1)P(=O)(Oc1ccc(NC(C)=O)cc1)Oc1ccc(NC(C)=O)cc1` (stereo not drawn) [35b], the IC50 in test [1] is greater than 10 µM.
